Target: T1, recombinant human GSK3β (Homo sapiens, UniProt P49841)
T1 construct: purchased Dundee University, UK
Test: GSK3β Scintillation Proximity Assay (ATP competition)
Type: biochemical
Details: inhibition constants calculated with Km of ATP for GSK3β of 20 μM; 1 μM ATP, 1 μM biotinylated peptide substrate
Protocol: Determination of ATP Competition in Scintillation Proximity GSK3β Assay.
GSK3β Scintillation Proximity Assay.
The competition experiments were carried out in duplicate with 10 different concentrations of the inhibitors in clear-bottom microtiter plates (Wallac, Finland). A biotinylated peptide substrate, Biotin-Ala-Ala-Glu-Glu-Leu-Asp-Ser-Arg-Ala-Gly-Ser(PO3H2)-Pro-Gln-Leu (AstraZeneca, Lund), was added at a final concentration of 1 μM in an assay buffer containing 1 mU recombinant human GSK3β (Dundee University, UK), 12 mM morpholinepropanesulfonic acid (MOPS), pH 7.0, 0.3 mM EDTA, 0.01% β-mercaptoethanol, 0.004% Brij 35 (a […] detergent), 0.5% glycerol and 0.5 μg BSA/25 μl. The reaction was initiated by the addition of 0.04 μCi [γ-^33P]ATP (Amersham, UK) and unlabelled ATP at a final concentration of 1 μM and assay volume of 25 μl. After incubation for 20 minutes at room temperature, each reaction was terminated by the addition of 25 μl stop solution containing 5 mM EDTA, 50 μM ATP, 0.1% Triton X-100 and 0.25 mg streptavidin coated Scintillation Proximity Assay (SPA) beads (Amersham, UK). After 6 hours the radioactivity was determined in a liquid scintillation counter (1450 MicroBeta Trilux, Wallac). The inhibition curves were analysed by non-linear regression using GraphPad Prism, USA. The Km value of ATP for GSK3β, used to calculate the inhibition constants (Ki) of the various compounds, was 20 μM.

T1 sequence (P49841 whole entry): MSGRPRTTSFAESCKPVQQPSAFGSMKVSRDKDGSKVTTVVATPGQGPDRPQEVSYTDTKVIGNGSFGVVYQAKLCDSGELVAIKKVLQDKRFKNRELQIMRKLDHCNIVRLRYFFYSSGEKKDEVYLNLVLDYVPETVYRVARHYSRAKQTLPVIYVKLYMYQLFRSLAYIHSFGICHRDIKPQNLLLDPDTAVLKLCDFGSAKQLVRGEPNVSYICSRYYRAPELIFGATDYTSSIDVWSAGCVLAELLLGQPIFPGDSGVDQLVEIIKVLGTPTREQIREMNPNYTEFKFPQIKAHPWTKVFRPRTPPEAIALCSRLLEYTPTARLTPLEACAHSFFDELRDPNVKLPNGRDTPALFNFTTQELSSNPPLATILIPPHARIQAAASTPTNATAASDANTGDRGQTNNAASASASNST

Ki: 9 nM
SMILES: Cc1ncc(-c2nc(Nc3ccc(C(=O)N4CCC(c5ccc(F)cc5)CC4)nc3)ncc2F)n1C1CCOCC1 [Example 16, [5-[[5-Fluoro-4-[2-methyl-3-(oxan-4-yl)imidazol-4-yl]pyrimidin-2-yl]amino]pyridin-2-yl]-[4-(4-fluorophenyl)-1-piperidyl]methanone]

Source: patent publication US20080188502A1, “New Compounds I” (AstraZeneca AB, priority 2006, published 2008)
